Reference: PubChem BioAssay AID2060626 (Molecular Pharmacology Branch, DTP, NCI, 2025)

Tested on: 168753-222-R-J1-PDC complex spheroid viability
Experiment: Anticancer human tumor 168753-222-R-J1-PDC patient-derived bladder carcinoma cell line growth inhibition [CLK]
Conditions: for IC50: curve of first compound; for viability, T/C: stronger effect = lower value
Method in brief: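 Multi-cell-type spheroids combined patient-derived tumor cells with HUVEC endothelial cells and human mesenchymal stem cells. Paired agents were dosed in half-log steps down from about clinical Cmax, or from 10 microM where Cmax was unknown.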
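Also: viability measured after seven days of drug exposure.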
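For viability, T/C in this document: luminescence signal used as surrogate for viable cell amount; 100% = DMSO vehicle control wells.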

Q: Which IC50 (second compound 0.0316 µM) does the source give for NC(=O)C(=Cn1cnc(-c2cc(C(F)(F)F)cc(C(F)(F)F)c2)n1)c1cncnc1 + CNC(=O)c1ccc(Nc2nc(OC3CCCC3)c3c(-c4ccc5nc(C)oc5c4)c[nH]c3n2)c(OC)c1 here?
A: The IC50 was > 3 µM.

Q: What about the IC50 (second compound 0.1 µM) of the same compound?
A: Its IC50 is 0.829 µM.

Q: And the IC50 (second compound 0.316 µM)?
A: Its IC50 is 0.142 µM.

Q: What about the IC50 (second compound 1 µM) of the same compound?
A: The IC50 was 0.0106 µM.

Q: And the IC50 (second compound 3.16 µM)?
A: The IC50 was < 0.00949 µM.

Q: And the IC50 (second compound 10 µM)?
A: The IC50 was < 0.00949 µM.

Q: And the viability, T/C (second compound 0.0316 µM, first compound 0.00949 µM)?
A: Its viability, T/C is 103%.

Q: What about the viability, T/C (second compound 0.0316 µM, first compound 0.03 µM) of the same compound?
A: Its viability, T/C is 105%.

Q: What about the viability, T/C (second compound 0.0316 µM, first compound 0.0949 µM) of the same compound?
A: Its viability, T/C is 69%.

Q: And the viability, T/C (second compound 0.0316 µM, first compound 0.3 µM)?
A: The viability, T/C was 83%.

Q: And the viability, T/C (second compound 0.0316 µM, first compound 0.949 µM)?
A: The viability, T/C was 72.6%.

Q: And the viability, T/C (second compound 0.0316 µM, first compound 3 µM)?
A: The viability, T/C was 48.9%.

Q: What about the viability, T/C (second compound 0.1 µM, first compound 0.00949 µM) of the same compound?
A: Its viability, T/C is 105%.

Q: What about the viability, T/C (second compound 0.1 µM, first compound 0.03 µM) of the same compound?
A: Its viability, T/C is 121%.

Q: What about the viability, T/C (second compound 0.1 µM, first compound 0.0949 µM) of the same compound?
A: Its viability, T/C is 89.9%.

Q: What about the viability, T/C (second compound 0.1 µM, first compound 0.3 µM) of the same compound?
A: Its viability, T/C is 59.7%.

Q: What about the viability, T/C (second compound 0.1 µM, first compound 0.949 µM) of the same compound?
A: Its viability, T/C is 58.3%.

Q: What about the viability, T/C (second compound 0.1 µM, first compound 3 µM) of the same compound?
A: Its viability, T/C is 21.5%.

Q: What about the viability, T/C (second compound 0.316 µM, first compound 0.00949 µM) of the same compound?
A: Its viability, T/C is 72.7%.

Q: And the viability, T/C (second compound 0.316 µM, first compound 0.03 µM)?
A: Its viability, T/C is 73.5%.

Q: And the viability, T/C (second compound 0.316 µM, first compound 0.0949 µM)?
A: The viability, T/C was 61.8%.

Q: And the viability, T/C (second compound 0.316 µM, first compound 0.3 µM)?
A: The viability, T/C was 28%.

Q: And the viability, T/C (second compound 0.316 µM, first compound 0.949 µM)?
A: Its viability, T/C is 23.1%.

Q: And the viability, T/C (second compound 0.316 µM, first compound 3 µM)?
A: Its viability, T/C is 21.4%.

Q: What about the viability, T/C (second compound 1 µM, first compound 0.00949 µM) of the same compound?
A: The viability, T/C was 51.8%.

Q: And the viability, T/C (second compound 1 µM, first compound 0.03 µM)?
A: The viability, T/C was 33.7%.

Q: And the viability, T/C (second compound 1 µM, first compound 0.0949 µM)?
A: The viability, T/C was 14.7%.

Q: And the viability, T/C (second compound 1 µM, first compound 0.3 µM)?
A: The viability, T/C was 9.95%.

Q: What about the viability, T/C (second compound 1 µM, first compound 0.949 µM) of the same compound?
A: The viability, T/C was 2.29%.

Q: What about the viability, T/C (second compound 1 µM, first compound 3 µM) of the same compound?
A: The viability, T/C was 11.6%.

Q: And the viability, T/C (second compound 3.16 µM, first compound 0.00949 µM)?
A: The viability, T/C was 23.3%.

Q: What about the viability, T/C (second compound 3.16 µM, first compound 0.03 µM) of the same compound?
A: The viability, T/C was 14.8%.

Q: What about the viability, T/C (second compound 3.16 µM, first compound 0.0949 µM) of the same compound?
A: The viability, T/C was 11.7%.

Q: And the viability, T/C (second compound 3.16 µM, first compound 0.3 µM)?
A: Its viability, T/C is 1.87%.

Q: And the viability, T/C (second compound 3.16 µM, first compound 0.949 µM)?
A: Its viability, T/C is 1.14%.

Q: What about the viability, T/C (second compound 3.16 µM, first compound 3 µM) of the same compound?
A: Its viability, T/C is 3.62%.

Q: What about the viability, T/C (second compound 10 µM, first compound 0.00949 µM) of the same compound?
A: Its viability, T/C is 15.3%.

Q: What about the viability, T/C (second compound 10 µM, first compound 0.03 µM) of the same compound?
A: Its viability, T/C is 13.7%.

Q: And the viability, T/C (second compound 10 µM, first compound 0.0949 µM)?
A: The viability, T/C was 8.71%.

Q: What about the viability, T/C (second compound 10 µM, first compound 0.3 µM) of the same compound?
A: Its viability, T/C is 1.11%.

Q: What about the viability, T/C (second compound 10 µM, first compound 0.949 µM) of the same compound?
A: Its viability, T/C is 2.71%.

Q: And the viability, T/C (second compound 10 µM, first compound 3 µM)?
A: The viability, T/C was 1.28%.

Q: Which results are given for Nc1ccccc1NC(=O)c1ccc(CNC(=O)OCc2cccnc2)cc1 + CNC(=O)c1ccc(Nc2nc(OC3CCCC3)c3c(-c4ccc5nc(C)oc5c4)c[nH]c3n2)c(OC)c1?
A: IC50 (second compound 0.0316 µM): 5.88 µM; IC50 (second compound 0.1 µM): 5.46 µM; IC50 (second compound 0.316 µM): 4.11 µM; IC50 (second compound 1 µM): < 0.0316 µM; IC50 (second compound 3.16 µM): < 0.0316 µM; IC50 (second compound 10 µM): < 0.0316 µM; viability, T/C (second compound 0.0316 µM, first compound 0.0316 µM): 99.1%; viability, T/C (second compound 0.0316 µM, first compound 0.1 µM): 101%; viability, T/C (second compound 0.0316 µM, first compound 0.316 µM): 90.6%; viability, T/C (second compound 0.0316 µM, first compound 1 µM): 90.6%; viability, T/C (second compound 0.0316 µM, first compound 3.16 µM): 84.4%; viability, T/C (second compound 0.0316 µM, first compound 10 µM): 21.6%; viability, T/C (second compound 0.1 µM, first compound 0.0316 µM): 98.8%; viability, T/C (second compound 0.1 µM, first compound 0.1 µM): 84.8%; viability, T/C (second compound 0.1 µM, first compound 0.316 µM): 85.8%; viability, T/C (second compound 0.1 µM, first compound 1 µM): 82.9%; viability, T/C (second compound 0.1 µM, first compound 3.16 µM): 81.2%; viability, T/C (second compound 0.1 µM, first compound 10 µM): 15.4%; viability, T/C (second compound 0.316 µM, first compound 0.0316 µM): 80%; viability, T/C (second compound 0.316 µM, first compound 0.1 µM): 68.7%; viability, T/C (second compound 0.316 µM, first compound 0.316 µM): 62.2%; viability, T/C (second compound 0.316 µM, first compound 1 µM): 78.3%; viability, T/C (second compound 0.316 µM, first compound 3.16 µM): 63.1%; viability, T/C (second compound 0.316 µM, first compound 10 µM): 6.28%; viability, T/C (second compound 1 µM, first compound 0.0316 µM): 33.9%; viability, T/C (second compound 1 µM, first compound 0.1 µM): 39%; viability, T/C (second compound 1 µM, first compound 0.316 µM): 36.5%; viability, T/C (second compound 1 µM, first compound 1 µM): 41.4%; viability, T/C (second compound 1 µM, first compound 3.16 µM): 44.7%; viability, T/C (second compound 1 µM, first compound 10 µM): 4.99%; viability, T/C (second compound 3.16 µM, first compound 0.0316 µM): 27.1%; viability, T/C (second compound 3.16 µM, first compound 0.1 µM): 22.3%; viability, T/C (second compound 3.16 µM, first compound 0.316 µM): 29.8%; viability, T/C (second compound 3.16 µM, first compound 1 µM): 41.7%; viability, T/C (second compound 3.16 µM, first compound 3.16 µM): 25.7%; viability, T/C (second compound 3.16 µM, first compound 10 µM): 3.07%; viability, T/C (second compound 10 µM, first compound 0.0316 µM): 19.5%; viability, T/C (second compound 10 µM, first compound 0.1 µM): 21%; viability, T/C (second compound 10 µM, first compound 0.316 µM): 28.1%; viability, T/C (second compound 10 µM, first compound 1 µM): 27.5%; viability, T/C (second compound 10 µM, first compound 3.16 µM): 21.1%; viability, T/C (second compound 10 µM, first compound 10 µM): 0.71%
